Bridge positions count the residues as written; N and C are the ends. Ends that are not written are not given here. Peptide text beside a SMILES is read from it. I, II: the chains in the order shown. * marks the point of attachment. X1 = NC(=O)CC[C@H](NC(=O)[C@@H](N)CS*)C(=O)N[C@@H](CCC(=O)O)C(=O)O
How the values were obtained:
Caco-2 monolayer = conditions: cited from earlier work
Experimental: To verify the lack of absorption of the peptide or their resultant fragments in the GI tract an additional study using Caco-2 cells was carried out. The native peptide […] and the samples collected after the simulated gastric and duodenal digestions (G60 and D60, respectively) were incubated in Caco-2 monolayer for 1 h. The peptide and its resultant fragments were identified in the AP chamber from G60 samples, however, only 0.10–0.25% were transported to the BL chamber (Table 3). Therefore, the presence of native […] in the AP chamber after 1 h of incubation and the absence of the ...

[1] = tested on: spontaneously hypertensive rats; experiment: Systolic blood pressure in SHR with or without Naloxone (tail-cuff); format: in vivo, rat; conditions: 50 mg/kg bw oral, Naloxone 3 mg/kg bw or saline, 6 h post-administration, n = 6
Experimental: Male, 17–20-week-old, SHR, weighing 286 ± 4 g were used in this study. All these animals were obtained from Charles River Laboratories Spain. The SHR were housed at a temperature of 23 °C with 12 h light/dark cycles and had free access to tap water and a standard diet (A04 Panlab). Before the experiments, rats were submitted to a training period of 10 days to guarantee the reliability of the measurements. To evaluate if […] presented an opioid-mediated effect, SHR received via subcutaneous 100 µL of Naloxone (3 mg/kg bw), and afterward a single oral dose (1 mL) of […] (10 mg/kg bw). Additionally, water, Captopril (50 mg/kg bw), known antihypertensive drug, and chicken foot hydrolysate Hpp11 (55 mg/kg bw), were administered as controls. Captopril and Hpp11 can inhibit ACE in vivo. […] Systolic blood pressure (SBP) was recorded in the rats by the tail-cuff method before and 2, 4, and 6 h post-administration. […]
Results from transepithelial transport studies are presented as means ± standard error means (SEM). […] The results for the experiments investigating the participation of opioid receptors in the […], Captopril and Hpp11 antihypertensive effect were expressed as the mean ± SEM of six animals per group (heterogeneity was tested by Levene’s test) and were analyzed by one-way ANOVA (Tukey’s test) using IBM SPSS Statistics 20.0 software. […]

porcine pepsin = molecular target: T1, porcine pepsin (Sus scrofa, UniProt P00791); experiment: In vitro simulated gastric digestion (G60); format: in vitro ADME; conditions: simulated gastric fluid 35 mM NaCl pH 2, porcine pepsin enzyme/substrate 1:20 w/w, 37 °C, 60 min; UHPLC-HRMS extracted ion chromatogram, 20 ppm window, semi-quantified; triplicate aliquots
T1 construct: purchased Sigma-Aldrich (Madrid, Spain)
Experimental: For the in vitro simulated peptide GI digestion, a two-stage hydrolysis process was carried out according to Martos et al.. […] was dissolved in simulated gastric fluid (35 mM NaCl at pH 2 for 15 min) and posteriorly subjected to digestion by porcine pepsin (E.C. 3.4.23.1, 3440 units/mg) at an enzyme/substrate ratio of 1: 20 w/w at 37 °C for 60 min. Gastric digestion with pepsin was stopped by adding 1 M NaHCO3 and pH was adjusted to 7.0 with NaOH 1 M (final protein concentration of 5 mg/mL). Aliquots of this gastric digest were collected (G60) and stored at −20 °C until analysis. Duodenal digestions were performed by using, as the starting material, the obtained gastric digests, with the addition of 1 M CaCl2, 0.25 M bis-Tris pH 6.5, 0.25 M bis-Tris pH 6.5, and a 0.125 M bile salts mixture containing equimolar quantities of sodium taurocholate and glycodeoxycholic acid. Posteriorly, the duodenal enzymes trypsin (EC 232-650-8, 10100 BAEE units/mg protein), α-chymotrypsin (EC 232-671-2; 55 units/mg protein), porcine pancreatic lipase (EC 232-619-9) and colipase (EC 259-490-1), prepared in 35 mM NaCl adjusted to pH 7, were added to the solution. Duodenal digestion was carried out at pH 7, 37 °C during 60 (D60). Then, enzymes were inactivated by heating at 95 °C for 10 min in a water bath, followed by cooling to room temperature. Triplicates of aliquots at each time point were collected and stored at −20 °C until analysis.
(§1) Samples obtained from in vitro peptide simulated digestion and Caco-2 monolayers were diluted 10 times with water (0.1% FA) and centrifuged (15,000 rpm, 15 min, 4 °C). Supernatants were directly analyzed by UHPLC-HRMS to avoid the loss of polar peptide fragments. Extensive clean-up or pre-concentration procedures were not necessary due to the high concentration of peptide and low matrix complexity than plasma samples.
(§2) The obtained purified solutions from plasma and peptide digests G60 and D60 and from AP and BL chambers in Caco-2 experiment were analyzed using a UHPLC 1290 Infinity II Series coupled to a QqQ 6490 Series (Agilent Technologies, Santa Clara, CA, USA) for tandem mass experiments or a qTOF 6550 Series (Agilent Technologies) for high-resolution mass spectrometry experiments. Chromatographic separation of peptide or their fragments were performed using a Kinetex 2.6 µm EVO C18 column (150 × 2.1 mm, […]) from (Phenomenex, Torrance, USA) as stationary phase and water containing 0.1% formic acid (solvent A) and acetonitrile (solvent B) as mobile phase. The separation was performed in gradient elution as follows: isocratic; 0–0.5 min, 2 % B; 0.5–1 min, 2–6% B; 1–5 min, 6–15% B; 5–6 min, 15–35% B; 6–10 min, 35–98% B; 10–12 min, 98% B isocratic; 12–12.10, 98–2% B. For all runs, 10 μL of the sample (4 °C) was injected, and the flow rate was 0.350 mL/min and the column temperature was 25 °C.
(§3) For in vitro simulated digestion experiments and Caco-2 monolayer samples, qTOF instrument was used to investigate the presence of unknown peptide fragments and previously in silico predicted peptide fragments by means of its accurate mass. Peptide and its fragments were semi-quantified using the chromatographic peak area observed in the extracted ion chromatograms using a 20 ppm mass window.

Caco-2 cell monolayers = experiment: Transepithelial transport through Caco-2 monolayer; format: in vitro ADME; conditions: 21 days, TEER > 200 Ω/cm^2, gastric digest G60 added to apical chamber, AP to BL, 1 h, 37 °C, HBSS, content in basolateral chamber in comparison to apical chamber, UHPLC-HRMS, triplicates
Experimental: Caco-2 cells were obtained from Sigma-Aldrich and were grown Dulbecco’s modified minimum essential medium (DMEM), supplemented with 20% fetal bovine serum (FBS), […] L-glutamine, 100 U/mL penicillin and 100 μg/mL streptomycin at 37 °C in and 5% CO2. Cells were seeded onto Transwell inserts permeable membrane support (0.4 µm pore, 24 mm diameter, 4.7 cm^2 grown surface from Merck Co., Bedford, MA, USA) placed in six-well plates. The seeding density was 12,000 cell/cm^2. The medium was replaced every 2–3 days and cells were growing for 21 days. On the 21st day of the procedure, the integrity of the Caco-2 monolayer was assessed by the measurement of transepithelial electrical resistance (TEER) using a Millicell ERS-2 voltammeter (EMD Millipore, Darmstadt, Germany) selecting the ones with TEER values higher than 200 Ω/cm^2.
For the transport study, Caco-2 cells, maintained in DMEM, were gently rinsed with Hank’s balanced salt solution (HBSS) and equilibrated for 20 min at 37 °C prior to the transport study. Then, it was evaluated the transepithelial transport of the peptide […] (1 mM) dissolved in HBSS and the digests obtained in the in vitro simulated digestion (G60 and D60). […] or the peptide digests G60 and D60 were added to the apical (AP) chamber and were incubated for 1 h at 37 °C. After this time, triplicates of the AP chamber content and the basolateral (BL) chamber content were taken and stored at −80 °C until ultra-high performance liquid chromatography-high resolution mass spectrometry (UHPLC-HRMS) analyses.
as §1, §2, §3

[2] = peptides derived from Manchego cheese; ref Ruiz et al.; cited from earlier work
Experimental: Simulated in vitro gastrointestinal digestion model was used to investigate the releasing of the amino acid sequences previously predicted in the in silico approach. The peptide was sequentially digested under physiological conditions and the identification of amino acid sequences in samples obtained from both gastric and intestinal digestion were performed by UHPLC-HRMS (Table 2). When the results obtained by the in silico approach and in vitro approach were compared, it was observed that only two of the fourteen predicted peptide fragments from the in silico approach were identified in the i ...

opioid receptors = conditions: non-selective opioid receptor antagonist Naloxone; cited from earlier work
Excerpt: However, some bioactive peptides might mediate their physiological effects through its binding to receptors present in the intestinal wall, implying that their absorption is not required. […] These opioid-like peptides are atypical opioid ligands that are released from the hydrolysis of food and present N-terminal sequences that are different fro ...

T1 sequence (P00791 60-385): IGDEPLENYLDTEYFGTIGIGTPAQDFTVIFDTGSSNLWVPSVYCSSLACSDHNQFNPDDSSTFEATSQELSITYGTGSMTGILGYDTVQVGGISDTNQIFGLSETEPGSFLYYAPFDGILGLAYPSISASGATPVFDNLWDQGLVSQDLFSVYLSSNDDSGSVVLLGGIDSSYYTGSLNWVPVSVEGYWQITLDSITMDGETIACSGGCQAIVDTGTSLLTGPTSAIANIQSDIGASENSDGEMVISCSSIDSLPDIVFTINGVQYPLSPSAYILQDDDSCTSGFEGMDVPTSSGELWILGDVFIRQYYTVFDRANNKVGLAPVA

Molecule	Area G60 (chromatographic peak area) (porcine pepsin)	G60 % Transport (Caco-2 cell monolayers)	other results
RADHP [antihypertensive peptide reported by Miguel et al]	–	–	Transport through Caco-2 monolayer (Caco-2 monolayer): lack of transported through Caco-2 monolayer
C[C@H](CS)C(=O)N1CCC[C@H]1C(=O)O [Captopril]	–	–	BP reduction in naloxone-treated and saline-treated rats [1]: able to reduce BP in rats treated with Naloxone and in rats treated with saline
AVFQHN [AVFQHN]	685,482	0.10%	–
KKYNVPQL [peptide derived from Manchego cheese]	–	–	Resistance to GI digestion [2]: resistance to GI digestion
QHNCQE [QHNCQE]	288,536	–	–
AVFQH [AVFQH]	155,533	0.17%	–
CC(C)[C@H](NC(=O)[C@H](C)N)C(=O)N[C@@H](Cc1ccccc1)C(=O)N[C@@H](CCC(N)=O)C(=O)N[C@@H](Cc1c[nH]cn1)C(=O)N[C@@H](CC(N)=O)C(=O)N[C@@H](CSSC[C@H](NC(=O)[C@H](CC(N)=O)NC(=O)[C@H](Cc1c[nH]cn1)NC(=O)[C@@H](N)CCC(N)=O)C(=O)N[C@@H](CCC(N)=O)C(=O)N[C@@H](CCC(=O)O)C(=O)O)C(=O)N[C@@H](CCC(N)=O)C(=O)N[C@@H](CCC(=O)O)C(=O)O (I: H-AVFQHNCQE-OH / II: H-QHNCQE-OH; disulfide I:7-II:4)	136,056	0.15%	–
CC(C)[C@H](NC(=O)[C@H](C)N)C(=O)N[C@@H](Cc1ccccc1)C(=O)N[C@@H](CCC(N)=O)C(=O)N[C@@H](Cc1c[nH]cn1)C(=O)N[C@@H](CC(N)=O)C(=O)N[C@@H](CSSC[C@H](N)C(=O)N[C@@H](CCC(N)=O)C(=O)N[C@@H](CCC(=O)O)C(=O)O)C(=O)N[C@@H](CCC(N)=O)C(=O)N[C@@H](CCC(=O)O)C(=O)O (H-AVFQHNC(X1)QE-OH)	93,694	0.15%	–
AVFQHNC [AVFQHNC]	220,051	0.60%	–
CC(C)[C@H](NC(=O)[C@H](C)N)C(=O)N[C@@H](Cc1ccccc1)C(=O)N[C@@H](CCC(N)=O)C(=O)N[C@@H](Cc1c[nH]cn1)C(=O)N[C@@H](CC(N)=O)C(=O)N[C@@H](CSSC[C@H](NC(=O)[C@H](CC(N)=O)NC(=O)[C@H](Cc1c[nH]cn1)NC(=O)[C@H](CCC(N)=O)NC(=O)[C@H](Cc1ccccc1)NC(=O)[C@@H](NC(=O)[C@H](C)N)C(C)C)C(=O)N[C@@H](CCC(N)=O)C(=O)N[C@@H](CCC(=O)O)C(=O)O)C(=O)N[C@@H](CCC(N)=O)C(=O)N[C@@H](CCC(=O)O)C(=O)O (I: H-AVFQHNCQE-OH / II: H-AVFQHNCQE-OH; disulfide I:7-II:7)	605,812	0.11%	–
VRYL [peptide derived from Manchego cheese]	–	–	Resistance to GI digestion [2]: resistance to GI digestion
YGLF [α-lactorphin, milk-derived opioid-like antihypertensive peptide]	–	–	BP-lowering effect after administration of Naloxone (opioid receptors): abolished
CC(C)[C@H](NC(=O)[C@H](C)N)C(=O)N[C@@H](Cc1ccccc1)C(=O)O [AVF] (H-Ala-Val-Phe-OH)	200,712	0.15%	–
